Values after ≈ are worked out from the molar mass of the structure shown.
Columns and labels:
[1] = tested on: Mycolicibacterium smegmatis; test: Antimycobacterial activity against Mycobacterium smegmatis MC2 155 assessed as ATP leakage by measuring intracellular ATP at 2 times MIC measured immediatey after addition of compounds by luciferase reporter gene assay; format: functional, str. MC2 155
[2] = tested on: Mycolicibacterium smegmatis; test: Antimycobacterial activity against Mycobacterium smegmatis MC2 155 assessed as inhibition of respiratory ATP synthesis by measuring ATP level at 2 times MIC measured after 6 hrs by luciferase reporter gene assay (reference value: 152%); format: functional, str. MC2 155; set-up: scale not given: the % may be the effect or the level left
[3] = tested on: Mycolicibacterium smegmatis; test: Antimycobacterial activity against Mycobacterium smegmatis MC2 155 assessed as inhibition of respiratory ATP synthesis by measuring ATP level at 2 times MIC measured after 1 hr by luciferase reporter gene assay (reference value: 90.6%); format: functional, str. MC2 155; set-up: scale not given: the % may be the effect or the level left
[4] = Cytotoxicity against human corneal fibroblasts assessed as reduction in ATP level measured after 4 hrs by Celltiter-Glo luminescent assay; format: toxicity, Corneal fibroblast
[5] = tested on: Mycolicibacterium smegmatis; test: Antimycobacterial activity against Mycobacterium smegmatis MC2 155 assessed as ATP leakage by measuring intracellular ATP at 0.5 times MIC measured at 6 hrs post dose by luciferase reporter gene assay; format: functional, str. MC2 155
[6] = tested on: Mycolicibacterium smegmatis; test: Antimycobacterial activity against Mycobacterium smegmatis MC2 155 assessed as ATP leakage by measuring extracellular ATP at 0.5 times MIC measured at 1 hr of post dose by luciferase reporter gene assay; format: functional, str. MC2 155
[7] = tested on: Mycolicibacterium smegmatis; test: Antimycobacterial activity against Mycobacterium smegmatis MC2 155 assessed as ATP leakage by measuring intracellular ATP at 0.5 times MIC measured at 24 hrs post dose by luciferase reporter gene assay; format: functional, str. MC2 155
[8] = tested on: Mycolicibacterium smegmatis; test: Antimycobacterial activity against Mycobacterium smegmatis MC2 155 assessed as ATP leakage by measuring extracellular ATP at MIC measured at 3 hrs post dose by luciferase reporter gene assay; format: functional, str. MC2 155
[9] = tested on: Mycolicibacterium smegmatis; test: Antimycobacterial activity against Mycobacterium smegmatis MC2 155 assessed as ATP leakage by measuring extracellular ATP at 2 times MIC measured at 9 hrs post dose by luciferase reporter gene assay; format: functional, str. MC2 155
CYP2C19 = CYP2C19 (Homo sapiens, UniProt P33261); test: Inhibition of CYP2C19 in human liver microsomes at 10 uM using omeprazole as substrate preincubated for 5 min followed by NADPH addition measured after 10 mins by LC-MS/MS method relative to control; format: ADME; settings: probe omeprazole
[10] = tested on: Mycolicibacterium smegmatis; test: Antimycobacterial activity against Mycobacterium smegmatis MC2 155 assessed as ATP leakage by measuring intracellular ATP at 0.5 times MIC measured at 3 hrs post dose by luciferase reporter gene assay; format: functional, str. MC2 155
[11] = tested on: Mycolicibacterium smegmatis; test: Antimycobacterial activity against Mycobacterium smegmatis MC2 155 assessed as ATP leakage by measuring intracellular ATP at 2 times MIC measured at 6 hrs post dose by luciferase reporter gene assay; format: functional, str. MC2 155
[12] = tested on: Mycolicibacterium smegmatis; test: Antimycobacterial activity against Mycobacterium smegmatis MC2 155 assessed as ATP leakage by measuring extracellular ATP at 0.5 times MIC measured at 24 hrs post dose by luciferase reporter gene assay; format: functional, str. MC2 155
[13] = tested on: Mycolicibacterium smegmatis; test: Antimycobacterial activity against Mycobacterium smegmatis MC2 155 assessed as ATP leakage by measuring intracellular ATP at 0.5 times MIC measured immediatey after addition of compounds by luciferase reporter gene assay; format: functional, str. MC2 155
CYP3A4 = CYP3A4 (Homo sapiens, UniProt P08684); test: Inhibition of CYP3A4 in human liver microsomes at 10 uM using midazolam as substrate preincubated for 5 min followed by NADPH addition measured after 10 mins by LC-MS/MS method relative to control; format: ADME; settings: probe midazolam
[14] = Selectivity index, ratio of CC50 for human corneal fibroblasts assessed as reduction in ATP level to MIC90 for Mycobacterium bovis BCG ATCC 35734
[15] = tested on: Mycolicibacterium smegmatis; test: Antimycobacterial activity against Mycobacterium smegmatis MC2 155 assessed as ATP leakage by measuring intracellular ATP at 2 times MIC measured at 3 hrs post dose by luciferase reporter gene assay; format: functional, str. MC2 155
[16] = tested on: Mycolicibacterium smegmatis; test: Antimycobacterial activity against Mycobacterium smegmatis MC2 155 assessed as ATP leakage by measuring intracellular ATP at 4 times MIC measured at 9 hrs post dose by luciferase reporter gene assay; format: functional, str. MC2 155
[17] = tested on: Mycolicibacterium smegmatis; test: Antimycobacterial activity against Mycobacterium smegmatis MC2 155 assessed as inhibition of respiratory ATP synthesis by measuring ATP level at 4 times MIC measured after 3 hrs by luciferase reporter gene assay (reference value: 158.3%); format: functional, str. MC2 155; set-up: scale not given: the % may be the effect or the level left
[18] = tested on: Mycolicibacterium smegmatis; test: Antimycobacterial activity against Mycobacterium smegmatis MC2 155 assessed as ATP leakage by measuring intracellular ATP at 4 times MIC measured at 1 hr of post dose by luciferase reporter gene assay; format: functional, str. MC2 155
CYP2D6 = CYP2D6 (Homo sapiens, UniProt P10635); test: Inhibition of CYP2D6 in human liver microsomes at 10 uM using bufuralol as substrate preincubated for 5 min followed by NADPH addition measured after 10 mins by LC-MS/MS method relative to control; format: ADME; settings: probe bufuralol
[19] = tested on: Mycolicibacterium smegmatis; test: Antimycobacterial activity against Mycobacterium smegmatis MC2 155 assessed as ATP leakage by measuring extracellular ATP at 2 times MIC measured at 1 hr of post dose by luciferase reporter gene assay; format: functional, str. MC2 155
[20] = Cytotoxicity against human corneal fibroblasts assessed as increase in LDH level measured after 4 hrs by Cytotox-one […] assay; format: toxicity, Corneal fibroblast
[21] = tested on: Mycolicibacterium smegmatis; test: Antimycobacterial activity against Mycobacterium smegmatis MC2 155 assessed as ATP leakage by measuring intracellular ATP at 0.5 times MIC measured at 1 hr of post dose by luciferase reporter gene assay; format: functional, str. MC2 155
[22] = tested on: Mycolicibacterium smegmatis; test: Antimycobacterial activity against Mycobacterium smegmatis MC2 155 assessed as ATP leakage by measuring extracellular ATP at MIC measured at 24 hrs post dose by luciferase reporter gene assay; format: functional, str. MC2 155
[23] = Selectivity index, ratio of CC50 for human corneal fibroblasts assessed as reduction in ATP level to MIC90 for Mycobacterium smegmatis MC2 155
[24] = tested on: Mycolicibacterium smegmatis; test: Antimycobacterial activity against Mycobacterium smegmatis MC2 155 assessed as ATP leakage by measuring intracellular ATP at 4 times MIC measured at 24 hrs post dose by luciferase reporter gene assay; format: functional, str. MC2 155
[25] = tested on: Mycolicibacterium smegmatis; test: Antimycobacterial activity against Mycobacterium smegmatis MC2 155 assessed as ATP leakage by measuring extracellular ATP at 0.5 times MIC measured at 6 hrs post dose by luciferase reporter gene assay; format: functional, str. MC2 155
[26] = tested on: Mycobacterium tuberculosis; test: Antimycobacterial activity against Mycobacterium tuberculosis clinical isolate 01;087 assessed as reduction in 2 log10 bacterial colonies measured after 14 to 21 days by agar dilution method; format: functional
[27] = tested on: Mycobacterium tuberculosis; test: Antimycobacterial activity against Mycobacterium tuberculosis clinical isolate 01;001 assessed as reduction in 2 log10 bacterial colonies measured after 14 to 21 days by agar dilution method; format: functional
[28] = tested on: Mycobacterium tuberculosis; test: Antimycobacterial activity against Mycobacterium tuberculosis clinical isolate 01;111 assessed as reduction in 2 log10 bacterial colonies measured after 14 to 21 days by agar dilution method; format: functional
[29] = tested on: Mycobacterium tuberculosis; test: Antimycobacterial activity against Mycobacterium tuberculosis clinical isolate 01;095 assessed as reduction in 2 log10 bacterial colonies measured after 14 to 21 days by agar dilution method; format: functional
[30] = tested on: Mycobacterium tuberculosis; test: Antimycobacterial activity against Mycobacterium tuberculosis clinical isolate 01;092 assessed as reduction in 2 log10 bacterial colonies measured after 14 to 21 days by agar dilution method; format: functional
[31] = tested on: Mycobacterium tuberculosis; test: Antimycobacterial activity against Mycobacterium tuberculosis clinical isolate 01;064 assessed as reduction in 2 log10 bacterial colonies measured after 14 to 21 days by agar dilution method; format: functional

CYP3A4, sequence (P08684 whole entry): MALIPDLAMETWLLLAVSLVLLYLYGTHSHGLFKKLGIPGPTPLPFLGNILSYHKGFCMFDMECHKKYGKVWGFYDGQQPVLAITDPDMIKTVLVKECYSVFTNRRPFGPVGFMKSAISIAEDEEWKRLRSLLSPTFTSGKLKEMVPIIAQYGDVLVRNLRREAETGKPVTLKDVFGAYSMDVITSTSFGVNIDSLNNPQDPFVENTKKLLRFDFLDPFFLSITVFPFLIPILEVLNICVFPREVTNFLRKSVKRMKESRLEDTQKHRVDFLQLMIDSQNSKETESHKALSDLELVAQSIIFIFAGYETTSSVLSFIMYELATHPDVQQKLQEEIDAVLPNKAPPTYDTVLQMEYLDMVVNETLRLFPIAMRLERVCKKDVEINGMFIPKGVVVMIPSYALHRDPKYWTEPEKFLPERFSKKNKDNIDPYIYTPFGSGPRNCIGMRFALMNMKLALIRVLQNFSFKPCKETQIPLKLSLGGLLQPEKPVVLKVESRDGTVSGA
CYP2D6, sequence (P10635 whole entry): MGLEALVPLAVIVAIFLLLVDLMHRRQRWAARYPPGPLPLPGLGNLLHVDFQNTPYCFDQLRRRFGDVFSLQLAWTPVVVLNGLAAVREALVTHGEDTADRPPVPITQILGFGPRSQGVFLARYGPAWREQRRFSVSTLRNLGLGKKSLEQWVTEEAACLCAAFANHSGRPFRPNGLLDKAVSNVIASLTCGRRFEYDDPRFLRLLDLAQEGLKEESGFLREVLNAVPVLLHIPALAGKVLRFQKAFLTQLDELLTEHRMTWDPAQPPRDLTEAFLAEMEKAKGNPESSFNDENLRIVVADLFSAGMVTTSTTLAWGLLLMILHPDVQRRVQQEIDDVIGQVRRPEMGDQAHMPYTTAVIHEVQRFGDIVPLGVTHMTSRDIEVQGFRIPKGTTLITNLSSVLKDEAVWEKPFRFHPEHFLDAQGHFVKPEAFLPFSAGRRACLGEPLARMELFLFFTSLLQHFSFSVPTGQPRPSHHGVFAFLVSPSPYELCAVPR
CYP2C19, sequence (P33261 whole entry): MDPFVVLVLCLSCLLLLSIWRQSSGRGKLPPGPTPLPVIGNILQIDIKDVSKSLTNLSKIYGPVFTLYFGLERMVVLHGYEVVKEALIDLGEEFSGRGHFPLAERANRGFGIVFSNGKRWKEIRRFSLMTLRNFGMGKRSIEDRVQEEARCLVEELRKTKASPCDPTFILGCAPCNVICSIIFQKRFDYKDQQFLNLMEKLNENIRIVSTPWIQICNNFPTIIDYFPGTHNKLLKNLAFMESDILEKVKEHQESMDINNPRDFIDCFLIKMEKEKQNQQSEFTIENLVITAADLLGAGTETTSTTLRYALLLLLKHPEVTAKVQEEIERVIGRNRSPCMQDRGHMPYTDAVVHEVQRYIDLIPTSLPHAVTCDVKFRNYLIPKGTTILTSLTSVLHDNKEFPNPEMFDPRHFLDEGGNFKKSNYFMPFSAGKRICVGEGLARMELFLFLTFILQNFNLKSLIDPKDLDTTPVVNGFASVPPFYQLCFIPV

Row | Compound | Activity [1] | Activity [2] | Activity [3] | CC50 at 4 h [4] | Activity [5] | Activity [6] | Activity [7] | Activity [8] | Activity [9] | inhibition at 10 min, 10 µM (CYP2C19) | Activity [10] | Activity [11] | Activity [12] | Activity [13] | inhibition at 10 min, 10 µM (CYP3A4) | Activity [15] | Activity [16] | Activity [17] | Activity [18] | inhibition at 10 min, 10 µM (CYP2D6) | also measured
1 | CCCN(CCC)CCCCOc1cc2oc3cc(OCCCCN(CCC)CCC)c(OC)c(CC=C(C)C)c3c(=O)c2c(O)c1CC=C(C)C | 96% | 3.9% | 5.9% | 108 µM | 69.4% | 24.7% | 46.4% | 91.8% | 96.1% | 19.2% | 61% | 3.9% | 53.6% | 100% | 0% | 2.6% | 15.7% | 4.6% | 5.7% | 0% | Selectivity Index [14]: 15 - 40; Activity [19]: 97.2%; CC50 at 4 h [20]: > 150 µM; Activity [21]: 75.3%; Activity [22]: 88.1%; Selectivity Index [23]: 15 - 40; Activity [24]: 12%; Activity [25]: 30.6%
2 | COc1c(OCCCCN2CCOCC2)cc2oc3cc(OCCCCN4CCOCC4)c(CC=C(C)C)c(O)c3c(=O)c2c1CC=C(C)C | 97% | 18.9% | 50.2% | > 150 µM | 86.8% | 2.2% | 52.5% | 44.7% | 84.4% | 17% | 94.1% | 23.3% | 47.5% | 100% | 32% | 36.6% | 7.9% | 26.8% | 57.3% | 0% | MIC [26]: 8 µg/mL (≈ 11.5 µM); MIC [27]: 4 µg/mL (≈ 5.77 µM); MIC [28]: 4 µg/mL (≈ 5.77 µM); MIC [29]: 4 µg/mL (≈ 5.77 µM); MIC [30]: 4 µg/mL (≈ 5.77 µM); Selectivity Index [14]: 15 - 40; MIC [31]: 4 µg/mL (≈ 5.77 µM); Activity [19]: 30.4%; CC50 at 4 h [20]: > 150 µM; Activity [21]: 97.8%; Activity [22]: 88.7%; Selectivity Index [23]: 15 - 40; Activity [24]: 4.5%; Activity [25]: 13.2%
3 | CCN(CC)CCCCOc1cc2oc3cc(OCCCCN(CC)CC)c(OC)c(CC=C(C)C)c3c(=O)c2c(O)c1CC=C(C)C | 98.7% | 26.8% | 5.8% | 19.7 µM | 87.8% | 6.8% | 33.3% | 88% | 96.6% | 3% | 83.6% | 3.2% | 66.7% | 100% | 12% | 2.7% | 2.7% | 2.6% | 2.6% | 6% | MIC [26]: 8 µg/mL (≈ 12 µM); MIC [27]: 4 µg/mL (≈ 6.02 µM); MIC [28]: 4 µg/mL (≈ 6.02 µM); MIC [29]: 4 µg/mL (≈ 6.02 µM); MIC [30]: 2 µg/mL (≈ 3.01 µM); MIC [31]: 8 µg/mL (≈ 12 µM); Activity [19]: 95.6%; CC50 at 4 h [20]: > 150 µM; Activity [21]: 93.2%; Activity [22]: 44.4%; Activity [24]: 2.7%; Activity [25]: 12.2%

From ChEMBL document CHEMBL3872220, “Amphiphilic xanthones as a potent chemical entity of anti-mycobacterial agents with membrane-targeting properties” (Eur J Med Chem, 2016)
